# Assay results from patent US8372863B2, “Tetrahydro-1H-pyrrolo fused pyridones” (Merck Sharp & Dohme Corp., priority 2008, dated 2013).
# pIC50: −log10 of the molar value. Where a name gives a salt, the structure may show the parent alone.
# Target: PHD2 (Homo sapiens, UniProt Q9GZT9)
# Experiment: PHD2 / HIF-1α peptide hydroxylation assay with time resolved fluorescence readout (PHD2 binding activity)
# Type: biochemical
# Conditions: FLAG-tagged full length PHD2; 0.2 μM 2-oxoglutarate, 0.5 μM HIF-1α peptide; read-out: PHD2 Activity (PHD2 binding activity expressed as IC50)
# Description: After a 30 min preincubation at room temperature, the enzymatic reactions were initiated by the addition of 4 μL of substrates (final concentrations of 0.2 μM 2-oxoglutarate and 0.5 μM HIF-1α peptide biotinyl-DLDLEMLAPYIPMDDDFQL). After 2 hr at room temperature, the reactions were terminated and signals were developed by the addition of a 25 μL quench/detection mix to a final concentration of 1 mM ortho-phenanthroline, 0.1 mM EDTA, 0.5 nM anti-(His)6 LANCE reagent (Perkin-Elmer Life Sciences), 100 nM AF647-labeled streptavidin (Invitrogen), and 2 μg/ml (His)6-VHL complex (S. Tan(2001) Protein Expr. Purif 21, 224-234). The ratio of time resolved fluorescence signals at 665 and 620 nm was determined, and percent inhibition was calculated relative to an uninhibited control sample run in parallel.
# Sequence of PHD2 (Q9GZT9 whole entry): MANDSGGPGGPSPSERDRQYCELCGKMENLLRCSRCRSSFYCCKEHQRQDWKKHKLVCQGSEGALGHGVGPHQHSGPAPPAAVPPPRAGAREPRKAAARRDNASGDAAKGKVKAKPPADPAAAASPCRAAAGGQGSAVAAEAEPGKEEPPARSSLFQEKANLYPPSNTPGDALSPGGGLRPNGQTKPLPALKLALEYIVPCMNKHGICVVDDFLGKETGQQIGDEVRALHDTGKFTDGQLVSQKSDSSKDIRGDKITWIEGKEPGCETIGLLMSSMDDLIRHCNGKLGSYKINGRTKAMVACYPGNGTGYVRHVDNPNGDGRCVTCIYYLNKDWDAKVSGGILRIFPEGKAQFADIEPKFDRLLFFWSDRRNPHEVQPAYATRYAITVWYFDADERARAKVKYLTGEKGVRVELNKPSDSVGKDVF
row,SMILES,pIC50
1,"O=C(O)CNC(=O)c1c(O)c2c(n(Cc3ccc(C(F)(F)F)cc3)c1=O)CN(C(=O)c1ccno1)C2 [Example 33, N-({4-hydroxy-6-(isoxazol-5-ylcarbonyl)-2-oxo-1-[4-(trifluoromethyl)benzyl]-2,5,6,7-tetrahydro-1H-pyrrolo[3,4-b]pyridin-3-yl}carbonyl)glycine]",7.00 to 8.00
2,"O=C(O)CNC(=O)c1c(O)c2c(n(Cc3ccc(C(F)(F)F)cc3)c1=O)CNC2 [Example 7, N-({4-hydroxy-2-oxo-1-[4-(trifluoromethyl)benzyl]-2,5,6,7-tetrahydro-1H-pyrrolo[3,4-b]pyridin-6-ium-3-yl}carbonyl)glycine trifluoroacetate]",> 8.00
3,"O=C(O)CNC(=O)c1c(O)c2c(n(Cc3ccc(C(F)(F)F)cc3)c1=O)CN(C(=O)c1cncs1)C2 [Example 30, N-({4-hydroxy-2-oxo-6-(1,3-thiazol-5-ylcarbonyl)-1-[4-(trifluoromethyl)benzyl]-2,5,6,7-tetrahydro-1H-pyrrolo[3,4-b]pyridin-3-yl}carbonyl)glycine]",> 8.00
4,"C=CCCC(=O)N1Cc2c(O)c(C(=O)NCC(=O)O)c(=O)n(Cc3ccc(C(F)(F)F)cc3)c2C1 [Example 1, N-({4-hydroxy-2-oxo-6-pent-4-enoyl-1-[4-(trifluoromethyl)benzyl]-2,5,6,7-tetrahydro-1H-pyrrolo[3,4-b]pyridin-3-yl}carbonyl)glycine]",> 8.00
5,"O=C(O)CNC(=O)c1c(O)c2c(n(Cc3ccc(C(F)(F)F)cc3)c1=O)CN(C(=O)c1cscn1)C2 [Example 29, N-({4-hydroxy-2-oxo-6-(1,3-thiazol-4-ylcarbonyl)-1-[4-(trifluoromethyl)benzyl]-2,5,6,7-tetrahydro-1H-pyrrolo[3,4-b]pyridin-3-yl}carbonyl)glycine]",> 8.00
6,"O=C(O)CNC(=O)c1c(O)c2c(n(Cc3cccc(-c4ccc(F)nc4)c3)c1=O)CN(C(=O)c1cscn1)C2 [Example 53, N-{[1-[3-(6-fluoropyridin-3-yl)benzyl]-4-hydroxy-2-oxo-6-(1,3-thiazo1-4-ylcarbonyl)-2,5,6,7-tetrahydro-1H-pyrrolo[3,4-b]pyridin-3-yl]carbonyl}glycine]",> 8.00
7,"Cc1cc(C(=O)N2Cc3c(O)c(C(=O)NCC(=O)O)c(=O)n(Cc4ccc(C(F)(F)F)cc4)c3C2)n(C)n1 [Example 23, N-({6-[(1,3-dimethyl-1H-pyrazol-5-yl)carbonyl]-4-hydroxy-2-oxo-1-[4-(trifluoromethyl)benzyl]-2,5,6,7-tetrahydro-1H-pyrrolo[3,4-b]pyridin-3-yl}carbonyl)glycine]",> 8.00
8,"CN(C)S(=O)(=O)N1Cc2c(O)c(C(=O)NCC(=O)O)c(=O)n(Cc3ccc(C(F)(F)F)cc3)c2C1 [Example 12, N-({6-[(dimethylamino)sulfonyl]-4-hydroxy-2-oxo-1-[4-(trifluoromethyl)benzyl]-2,5,6,7-tetrahydro-1H-pyrrolo[3,4-b]pyridin-3-yl}carbonyl)glycine]",> 8.00
9,"O=C(O)CNC(=O)c1c(O)c2c(n(Cc3cccc(-c4ccc(Cl)cc4)c3)c1=O)CN(C(=O)c1cscn1)C2 [Example 45, N-{[1-[(4′-chlorobiphenyl-3-yl)methyl]-4-hydroxy-2-oxo-6-(1,3-thiazol-4-ylcarbonyl)-2,5,6,7-tetrahydro-1H-pyrrolo[3,4-b]pyridin-3-yl]carbonyl}glycine]",> 8.00
10,"CC(C)(C)C(=O)N1Cc2c(O)c(C(=O)NCC(=O)O)c(=O)n(Cc3ccc(C(F)(F)F)cc3)c2C1 [Example 15, N-({6-(2,2-dimethylpropanoyl)-4-hydroxy-2-oxo-1-[4-(trifluoromethyl)benzyl]-2,5,6,7-tetrahydro-1H-pyrrolo[3,4-b]pyridin-3-yl}carbonyl)glycine]",> 8.00
11,"O=C(O)CNC(=O)c1c(O)c2c(n(Cc3cccc(-c4cccc(Cl)c4)c3)c1=O)CN(C(=O)c1cscn1)C2 [Example 50, N-{[1-[(3′-chlorobiphenyl-3-yl)methyl]-4-hydroxy-2-oxo-6-(1,3-thiazol-4-ylcarbonyl)-2,5,6,7-tetrahydro-1H-pyrrolo[3,4-b]pyridin-3-yl]carbonyl}glycine]",> 8.00
12,"CCN1Cc2c(O)c(C(=O)NCC(=O)O)c(=O)n(Cc3ccc(C(F)(F)F)cc3)c2C1 [Example 41, N-({6-ethyl-4-hydroxy-2-oxo-1-[4-(trifluoromethyl)benzyl]-2,5,6,7-tetrahydro-1H-pyrrolo[3,4-b]pyridin-6-ium-3-yl}carbonyl)glycine trifluoroacetate]",7.00 to 8.00
13,"O=C(O)CNC(=O)c1c(O)c2c(n(Cc3ccc(C(F)(F)F)cc3)c1=O)CN(C(=O)c1csnn1)C2 [Example 35, N-({4-hydroxy-2-oxo-6-(1,2,3-thiadiazol-4-ylcarbonyl)-1-[4-(trifluoromethyl)benzyl}-2,5,6,7-tetrahydro-1H-pyrrolo[3,4-b]pyridin-3-yl}carbonyl)glycine]",> 8.00
14,"O=C(O)CNC(=O)c1c(O)c2c(n(Cc3ccc(-c4ccccc4)cc3)c1=O)CN(C(=O)c1cscn1)C2 [Example 38, N-{[1-(biphenyl-4-ylmethyl)-4-hydroxy-2-oxo-6-(1,3-thiazol-4-ylcarbonyl)-2,5,6,7-tetrahydro-1H-pyrrolo[3,4-b]pyridin-3-yl]carbonyl}glycine]",> 8.00
15,"O=C(O)CNC(=O)c1c(O)c2c(n(Cc3ccc(C(F)(F)F)cc3)c1=O)CN(C(=O)C1CCCC1)C2 [Example 20, N-({6-(cyclopentylcarbonyl)-4-hydroxy-2-oxo-1-[4-(trifluoromethyl)benzyl]-2,5,6,7-tetrahydro-1H-pyrrolo[3,4-b]pyridin-3-yl}carbonyl)glycine]",> 8.00
16,"O=C(O)CNC(=O)c1c(O)c2c(n(Cc3ccc(C(F)(F)F)cc3)c1=O)CN(C(=O)c1cccnc1)C2 [Example 25, N-({4-hydroxy-2-oxo-6-(pyridin-3-ylcarbonyl)-1-[4-(trifluoromethyl)benzyl]-2,5,6,7-tetrahydro-1H-pyrrolo[3,4-b]pyridin-3-yl}carbonyl)glycine]",> 8.00
17,"CC(=O)N1Cc2c(O)c(C(=O)NCC(=O)O)c(=O)n(Cc3ccc(C(F)(F)F)cc3)c2C1 [Example 9, N-({6-acetyl-4-hydroxy-2-oxo-1-[4-(trifluoromethyl)benzyl]-2,5,6,7-tetrahydro-1H-pyrrolo[3,4-b]pyridin-3-yl}carbonyl)glycine]",> 8.00
18,"O=C(O)CNC(=O)c1c(O)c2c(n(Cc3ccc(C(F)(F)F)cc3)c1=O)CN(S(=O)(=O)c1ccccc1)C2 [Example 19, N-({4-hydroxy-2-oxo-6-(phenyl-sulfonyl)-1-[4-(trifluoromethyl)benzyl]-2,5,6,7-tetrahydro-1H-pyrrolo[3,4-b]pyridin-3-yl}carbonyl)glycine]",> 8.00
19,"O=C(O)CNC(=O)c1c(O)c2c(n(Cc3cccc(-c4cccnc4)c3)c1=O)CN(C(=O)c1cscn1)C2 [Example 52, N-{[4-hydroxy-2-oxo-1-(3-pyridin-3-ylbenzyl)-6-(1,3-thiazol-3-ium-4-ylcarbonyl)-2,5,6,7-tetrahydro-1H-pyrrolo[3,4-b]pyridin-3-yl]carbonyl}glycine trifluoroacetate]",> 8.00
20,"O=C(O)CNC(=O)c1c(O)c2c(n(Cc3cccc(-c4cncnc4)c3)c1=O)CN(C(=O)c1cscn1)C2 [Example 46, N-{[4-hydroxy-2-oxo-1-(3-pyrimidin-5-ylbenzyl)-6-(1,3-thiazol-4-ylcarbonyl)-2,5,6,7-tetrahydro-1H-pyrrolo[3,4-b]pyridin-3-yl]carbonyl}glycine]",> 8.00
21,"Cc1ccc(C(=O)N2Cc3c(O)c(C(=O)NCC(=O)O)c(=O)n(Cc4ccc(C(F)(F)F)cc4)c3C2)cn1 [Example 26, N-({4-hydroxy-6-[(6-methylpyridin-3-yl)carbonyl]-2-oxo-1-[4-(trifluoromethyl)benzyl]-2,5,6,7-tetrahydro-1H-pyrrolo[3,4-b]pyridin-3-yl}carbonyl)glycine]",> 8.00
22,"O=C(O)CNC(=O)c1c(O)c2c(n(Cc3cccc(-c4ccccc4)c3)c1=O)CN(C(=O)c1cscn1)C2 [Example 44, N-{[1-(biphenyl-3-ylmethyl)-4-hydroxy-2-oxo-6-(1,3-thiazol-4-ylcarbonyl)-2,5,6,7-tetrahydro-1H-pyrrolo[3,4-b]pyridin-3-yl]carbonyl}glycine]",> 8.00
23,"C=CCCC(=O)N1Cc2c(O)c(C(=O)NCC(=O)O)c(=O)n(Cc3ccc(Br)cc3)c2C1C (centres unmarked) [Example 5, N-{[1-(4-bromobenzyl)-4-hydroxy-7-methyl-2-oxo-6-pent-4-enoyl-2,5,6,7-tetrahydro-1H-pyrrolo[3,4-b]pyridin-3-yl]carbonyl}glycine]",> 8.00
24,"C=CCCC(=O)N1Cc2c(O)c(C(=O)NCC(=O)O)c(=O)n(Cc3cccc(-c4ccccc4)c3)c2C1 [Example 43, N-{[1-(biphenyl-3-ylmethyl)-4-hydroxy-2-oxo-6-pent-4-enoyl-2,5,6,7-tetrahydro-1H-pyrrolo[3,4-b]pyridin-3-yl]carbonyl}glycine]",> 8.00
25,"N#Cc1ccccc1Cn1c2c(c(O)c(C(=O)NCC(=O)O)c1=O)CN(C(=O)c1cscn1)C2 [Example 56, N-{[1-(2-cyanobenzyl)-4-hydroxy-2-oxo-6-(1,3-thiazol-4-ylcarbonyl)-2,5,6,7-tetrahydro-1H-pyrrolo[3,4-b]pyridin-3-yl]carbonyl}glycine]",> 8.00
26,"O=C(O)CNC(=O)c1c(O)c2c(n(Cc3ccc(C(F)(F)F)cc3)c1=O)CN(Cc1cccc(Cl)c1)C2 [Example 40, N-({6-(3-chlorobenzyl)-4-hydroxy-2-oxo-1-[4-(trifluoromethyl)benzyl]-2,5,6,7-tetrahydro-1H-pyrrolo[3,4-b]pyridin-6-ium-3-yl}carbonyl)glycine chloride]",7.00 to 8.00
